Assays:
[1] = Oral bioavailability in rat at 10 mg/kg; format: ADME, organism-based; conditions: in vivo
[2] = Half life in rat at 2 mg/kg, iv; format: ADME, organism-based; design: dose 2 mg/kg, route intravenous; conditions: in vivo
[3] = Clearance in rat at 2 mg/kg, iv and 10 mg/kg, po; format: ADME, organism-based; conditions: in vivo
[4] = Volume of distribution at steady state in rat at 2 mg/kg, iv and 10 mg/kg, po; format: ADME, organism-based; conditions: in vivo, read-out: Vdss
[5] = Oral bioavailability in dog at 1 mg/kg; format: ADME, organism-based, Canis lupus familiaris; conditions: in vivo
[6] = Half life in dog at 0.5 mg/kg, iv; format: ADME, organism-based, Canis lupus familiaris; design: dose 0.5 mg/kg, route intravenous; conditions: in vivo
[7] = Clearance in dog at 0.5 mg/kg, iv and 1 mg/kg, po; format: ADME, organism-based, Canis lupus familiaris; conditions: in vivo
[8] = Volume of distribution at steady state in dog at 0.5 mg/kg, iv and 1 mg/kg, po; format: ADME, organism-based, Canis lupus familiaris; conditions: in vivo, read-out: Vdss
[9] = test system: CGRP receptor (CALCRL/RAMP1) (Homo sapiens); experiment: Ratio Ki for CGRP receptor in human SK-N-MC cells in the absence of MgCl2 to Ki for CGRP receptor in human SK-N-MC cells in the presence of MgCl2

SMILES	bioavailability [1] [%]	half-life [2] [h]	clearance [3] [mL/min/kg]	Vd [4] [L/kg]	bioavailability [5] [%]	half-life [6] [h]	clearance [7] [mL/min/kg]	Vd [8] [L/kg]	Ratio Ki [9]
O=C(NCc1cc(F)cc(F)c1)c1nc(N2CCCCS2(=O)=O)cc(Br)c1O	26	5.4	1.1	0.4	13	7.1	5.1	3	
CC(C)C[C@H](NC(=O)CNC(=O)[C@H](C)NC(=O)[C@H](CC(C)C)NC(=O)[C@H](CCCNC(=N)N)NC(=O)[C@H](Cc1cnc[nH]1)NC(=O)[C@@H](NC(=O)[C@@H](NC(=O)[C@H](CS)NC(=O)[C@@H](NC(=O)[C@H](C)NC(=O)[C@@H](NC(=O)[C@H](CC(=O)O)NC(=O)[C@H](CS)NC(=O)[C@H](C)N)[C@@H](C)O)[C@@H](C)O)C(C)C)[C@@H](C)O)C(=O)N[C@@H](CC(C)C)C(=O)N[C@@H](CO)C(=O)N[C@@H](CCCNC(=N)N)C(=O)N[C@@H](CO)C(=O)NCC(=O)NCC(=O)N[C@H](C(=O)N[C@H](C(=O)N[C@@H](CCCCN)C(=O)N[C@@H](CC(N)=O)C(=O)N[C@@H](CC(N)=O)C(=O)N[C@@H](Cc1ccccc1)C(=O)N[C@H](C(=O)N1CCC[C@H]1C(=O)N[C@H](C(=O)N[C@@H](CC(N)=O)C(=O)N[C@H](C(=O)NCC(=O)N[C@@H](CO)C(=O)N[C@@H](CCCCN)C(=O)N[C@@H](C)C(=O)N[C@@H](Cc1ccccc1)C(N)=O)C(C)C)[C@@H](C)O)C(C)C)C(C)C)C(C)C									1

— ChEMBL document CHEMBL1909622, “Identification of a novel RAMP-independent CGRP receptor antagonist” (Bioorg Med Chem Lett, 2011)
